Test: Pharmacokinetics of orally administered salmon calcitonin combined with 5-CNAC
Type: in vivo
From the text: An oral form of calcitonin would improve patient acceptance and facilitate improved patient compliance by providing a more acceptable, alternative delivery route for peptide therapy. […] Salmon calcitonin appears rapidly in the plasma following oral administration, with median tmax at about 0.25 hr post-dose. Following tmax the plasma concentration fell rapidly. […] Plasma sCT concentrations increased as sCT doses increased. However, with high variability in available data, dose-proportional increase in AUC could not be confirmed.

**Q.** Which “effect of food on bioavailability of sCT” value (administered with food) does the source give for `CC(C)C[C@H](NC(=O)[C@H](CCCCN)NC(=O)CNC(=O)[C@H](CC(C)C)NC(=O)[C@@H](NC(=O)[C@@H]1CSSC[C@H](N)C(=O)N[C@@H](CO)C(=O)N[C@@H](CC(N)=O)C(=O)N[C@@H](CC(C)C)C(=O)N[C@@H](CO)C(=O)N[C@@H]([C@@H](C)O)C(=O)N1)C(C)C)C(=O)N[C@@H](CO)C(=O)N[C@@H](CCC(N)=O)C(=O)N[C@@H](CCC(=O)O)C(=O)N[C@@H](CC(C)C)C(=O)N[C@@H](Cc1c[nH]cn1)C(=O)N[C@@H](CCCCN)C(=O)N[C@@H](CC(C)C)C(=O)N[C@@H](CCC(N)=O)C(=O)N[C@H](C(=O)N[C@@H](Cc1ccc(O)cc1)C(=O)N1CCC[C@H]1C(=O)N[C@@H](CCCNC(=N)N)C(=O)N[C@H](C(=O)N[C@@H](CC(N)=O)C(=O)N[C@H](C(=O)NCC(=O)N[C@@H](CO)C(=O)NCC(=O)N[C@H](C(=O)N1CCC[C@H]1C(N)=O)[C@@H](C)O)[C@@H](C)O)[C@@H](C)O)[C@@H](C)O` [salmon calcitonin] here?
**A.** markedly reduces

**Q.** And the “accumulation (AUC after multiple-dose vs single-dose)” value (oral)?
**A.** No significant accumulation

**Q.** What about the “gastrointestinal (GI) absorption of the sCT” value (oral, combination with 5-CNAC, rodents, monkeys and humans) of the same molecule?
**A.** marked increase

**Q.** And the Tmax (plasma, following oral administration, post-dose, read-out: median tmax)?
**A.** ~15 min
